The subject of the experiment is Individualized ES cells. The experiment can be described thus: Attachment and survival of individualized ES cells seeded in TeSR medium with or without ROCK inhibitor. Type of experiment: cell-based, human. The following applies: H1152 at 1 uM, fibronectin-coated surfaces. The procedure: Variations in input ES colony size and colony density can lead to substantial variability in performance of any differentiation method. Therefore, the dispersion of ES colonies into individual cells prior to initiating differentiation was investigated. Cultured populations of ES cells were dispersed or individualized with trypsin or TrypLE. Dispersed ES cells were then seeded in TeSR medium, with or without a ROCK inhibitor (H1152, 1 μM). Differentiation procedures described herein were performed with the individualized cultures.
Furthermore, if the seeding density is too low (less than approximately 1×10^4 cells per cm^2), cells detach and lose viability even in the presence of a ROCK inhibitor. If seeded at too high a cell density (greater than 5×10^4 cells per cm^2), cells remain attached, but fail to differentiate into hematoendothelial progenitors. The optimum seeding density between these limits is dependent on the method used for cell expansion, the passage number, and the overall condition of the ES cells.

Consider `Cc1cncc2cccc(S(=O)(=O)N3CCCNC[C@@H]3C)c12` [H1152], for which the “attachment and survival of individualized ES cells” value is “do not attach and survive without the addition of a survival factor”.

Source of the values: patent publication US8557580B2, “Methods and compositions for the differentiation of stem cells” (Cellular Dynamics International, Inc., priority 2009, dated 2013).
